Values quoted from earlier work, collected in patent publication US5981529A, “Substituted indolylpropyl-piperazine derivatives as 5-HT1D α agonists” (Merck Sharp & Dohme Limited, priority 1995, dated 1999).

Key:
[1] = tested on: human 5-HT1Dα and 5-HT1Dβ receptor subtypes; conditions: cf. WO-A-91/17174, Table 1
[2] = therapeutic doses

## CNS(=O)(=O)Cc1ccc2[nH]cc(CCN(C)C)c2c1 [sumatriptan]
[1]
  discrimination between the human 5-HT1Dα and 5-HT1Dβ receptor subtypes: barely discriminates between the human 5-HT1Dα and 5-HT1Dβ receptor subtypes
[2]
  adverse events on administration to humans: certain adverse cardiovascular events
